Experimental findings from ChEMBL document CHEMBL1201862, “PubChem BioAssay data set” (2004) are described below.

Some test systems named below: 786-0; A549; HCT-15; HL-60; HOP-62; HT-29; IGROV-1; MDA-MB-231; Malme-3M; OVCAR-3; OVCAR-4; OVCAR-5; SF-295; SK-MEL-28; SN12C; SNB-19; U-251; UACC-257; UACC-62; SR.
Common to all, as to assay: inhibition of tumour cell growth, NCI panel, 48 h

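96-well plates; 48 h exposure; 5 concentrations. Endpoints by linear interpolation between flanking doses. Not reached: highest tested concentration assigned. GI50 = concentration required for 50% inhibition of growth.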 Calls of active or inactive are those of the source. No stated cut-off is given here; in the data, active = GI50 up to about 1.1 µM and inactive = higher.

In the case of `c1cc2c(cc1NC1=NCCO1)CCCC2`, the GI50 in the test with 786-0 was 5.07 µM (inactive); in the test on A549, 4.8 µM (inactive); in the test on HCT-15, 3.45 µM; in the test with HL-60 it was 2.66 µM (inactive); with HOP-62, 2.67 µM (inactive); with HT-29 it was 2.62 µM (inactive). Further, the GI50 in the test on IGROV-1 was 4.37 µM (inactive); in the test on MDA-MB-231, 2.16 µM (inactive); with Malme-3M it was 6.7 µM (inactive); in the test with OVCAR-3 it was 3.51 µM (inactive); in the test on OVCAR-4, 10.7 µM (inactive); in the test with OVCAR-5, 6.07 µM (inactive). Also, the GI50 with SF-295 was 4.02 µM (inactive); in the test with SK-MEL-28 it was 5.19 µM (inactive); in the test with SN12C it was 3.56 µM (inactive); in the test on SNB-19, 21.7 µM (inactive); with U-251, 4.16 µM (inactive); in the test on UACC-257, 3.77 µM (inactive). For the same molecule, the GI50 in the test on UACC-62 was 4.11 µM (inactive).
As to `COC(C/C=C\C=C\CC/C=C/CC(C)/C=C/C(=C\C(=O)O)CC(=O)O)/C(C)=C\C=C(/C)C(=O)O` (stereo not given), the GI50 was > 100 µM (inactive) with A549; over 100 µM in the test with HCT-15; > 100 µM (inactive) in the test with HOP-62; > 100 µM (inactive) with HT-29; > 100 µM (inactive) in the test with IGROV-1; > 100 µM (inactive) in the test with MDA-MB-231. Moreover, the GI50 with Malme-3M, in the test on OVCAR-3, in the test with OVCAR-4, in the test with OVCAR-5, in the test with SF-295 and in the test on SK-MEL-28 was > 100 µM (inactive) in each case. Besides, the GI50 in the test on SN12C, with SNB-19, with SR, in the test on U-251, in the test with UACC-257 and with UACC-62 was > 100 µM (inactive) in each case.
For `CC1(C)CC2=NO[Se]3=C2C(=NO3)C1`, the GI50 is 1.94 µM (inactive) in the test with 786-0; 3.42 µM (inactive) with A549; 0.811 µM in the test with HCT-15; 2.22 µM (inactive) with HL-60; 2.99 µM (inactive) with HOP-62; 0.929 µM (active) with HT-29. Besides, the GI50 in the test on IGROV-1 was 2.72 µM (inactive); with MDA-MB-231, 4.19 µM (inactive); in the test on OVCAR-3 it was 1.68 µM (inactive); with OVCAR-4, 3.41 µM (inactive); in the test with OVCAR-5, 5.11 µM (inactive); with SF-295, 2.36 µM (inactive). The GI50 in the test with SK-MEL-28 is 4.54 µM (inactive); in the test with SN12C, 4.43 µM (inactive); in the test with SNB-19, 4.08 µM (inactive); in the test with U-251, 3.69 µM (inactive); in the test with UACC-257 it was 2.17 µM (inactive); in the test on UACC-62, 2.27 µM (inactive).
For `CC1(C)CC(=O)C2=C(C1)NC(=S)C(C#N)C2c1ccccc1` (stereo not given), the GI50 is > 100 µM (inactive) in the test with 786-0; > 100 µM (inactive) in the test with A549; over 100 µM in the test with HCT-15; > 100 µM (inactive) with HL-60; > 100 µM (inactive) with HOP-62; > 100 µM (inactive) in the test on HT-29. For the same molecule, the GI50 with IGROV-1, in the test on MDA-MB-231, with Malme-3M, with OVCAR-3, in the test with OVCAR-4 and with OVCAR-5 was > 100 µM (inactive) throughout. For the same molecule, the GI50 with SF-295, with SK-MEL-28, in the test with SN12C, in the test on SNB-19, in the test on U-251 and with UACC-257 was > 100 µM (inactive) throughout. Moreover, the GI50 with UACC-62 is > 100 µM (inactive).
For the molecule `O=C1NC(N/N=C/c2ccccc2)=N/C1=C\c1ccco1`, the GI50 in the test with 786-0 is 22.3 µM (inactive); in the test with A549, 27.7 µM (inactive); in the test with HCT-15 it was 40.6 µM; in the test on HL-60, > 100 µM (inactive); in the test with HOP-62, 19.8 µM (inactive); in the test with HT-29, 51.9 µM (inactive). Further, the GI50 in the test on IGROV-1 was 16.9 µM (inactive); in the test with MDA-MB-231, 65.2 µM (inactive); with Malme-3M it was > 100 µM (inactive); in the test with OVCAR-3, 33.8 µM (inactive); in the test with OVCAR-4 it was 38.5 µM (inactive); with OVCAR-5, > 100 µM (inactive). In addition, the GI50 with SF-295 is 33.1 µM (inactive); in the test with SK-MEL-28, 51.8 µM (inactive); with SN12C, 35.6 µM (inactive); in the test with SNB-19, 36.5 µM (inactive); with U-251, 24.8 µM (inactive); in the test on UACC-257, > 100 µM (inactive). In addition, in the test on UACC-62, the GI50 is 28.7 µM (inactive).
In the case of `CCCCn1c(C)c2c(c1C)C(=O)N(CC(O)CN1CCc3ccccc3C1)C2=O` (stereo not given), the GI50 in the test with 786-0 was 45.8 µM (inactive); in the test on A549, 88.3 µM (inactive); with HCT-15 it was over 100 µM; in the test on HL-60, 98.4 µM (inactive); in the test with HOP-62, > 100 µM (inactive); in the test with HT-29, 37.8 µM (inactive). The GI50 in the test with IGROV-1 was > 100 µM (inactive); in the test on MDA-MB-231, > 100 µM (inactive); in the test with Malme-3M, 93.3 µM (inactive); in the test with OVCAR-3 it was 67.8 µM (inactive); in the test with OVCAR-4, 56.9 µM (inactive); with OVCAR-5 it was > 100 µM (inactive). For the same molecule, the GI50 is 42.4 µM (inactive) in the test with SF-295; > 100 µM (inactive) in the test with SK-MEL-28; 90.4 µM (inactive) in the test on SN12C; > 100 µM (inactive) with SNB-19; 81.5 µM (inactive) in the test on U-251; 33.4 µM (inactive) in the test with UACC-257. Also, in the test with UACC-62, the GI50 is 60 µM (inactive).
With `CC(=O)OC(Cn1cncn1)(Cn1cncn1)c1ccc(Cl)cc1Cl`, the GI50 with 786-0 is > 100 µM (inactive); in the test on A549, > 100 µM (inactive); in the test with HCT-15 it was over 100 µM; in the test on HL-60 it was > 100 µM (inactive); in the test on HOP-62 it was > 100 µM (inactive); in the test on HT-29, > 100 µM (inactive). The GI50 with IGROV-1, in the test on MDA-MB-231, with OVCAR-3, in the test on OVCAR-4, in the test with OVCAR-5 and with SF-295 was > 100 µM (inactive) each time. Moreover, the GI50 in the test on SK-MEL-28, with SNB-19, in the test on U-251 and in the test with UACC-257 was > 100 µM (inactive) throughout.
With `CCC/C=C/C=C/C1CC(O)C(O)C(=O)C1CO` (stereo not given), the GI50 in the test with 786-0 is > 100 µM (inactive); with A549 it was > 100 µM (inactive); in the test on HCT-15, over 100 µM; with HL-60, 48.2 µM (inactive); in the test with HT-29, > 100 µM (inactive); with IGROV-1 it was > 100 µM (inactive). Further, the GI50 was > 100 µM (inactive) with MDA-MB-231; 21.6 µM (inactive) in the test with OVCAR-3; > 100 µM (inactive) in the test with OVCAR-4; > 100 µM (inactive) in the test on OVCAR-5; > 100 µM (inactive) with SF-295; > 100 µM (inactive) in the test on SK-MEL-28. In addition, the GI50 in the test on SN12C, with SNB-19, in the test on U-251, in the test on UACC-257 and in the test on UACC-62 was > 100 µM (inactive) in each case.
With `Nc1cc(N)c(/N=N/c2cccc3c(S(=O)(=O)O)cccc23)cc1/N=N/c1cc([N+](=O)[O-])ccc1O`, the GI50 in the test on 786-0 was 42.1 µM (inactive); in the test with A549, 25.5 µM (inactive); with HCT-15, 22.1 µM; in the test on HOP-62, 29.9 µM (inactive); in the test on HT-29, 43.8 µM (inactive); in the test on IGROV-1, 15.6 µM (inactive). Also, the GI50 in the test with MDA-MB-231 is 14.6 µM (inactive); with Malme-3M, 17.3 µM (inactive); in the test on OVCAR-3, 9.08 µM (inactive); with OVCAR-4 it was 18.4 µM (inactive); with OVCAR-5, 23.3 µM (inactive); in the test with SF-295 it was 32.2 µM (inactive). For the same molecule, the GI50 with SN12C is 32.3 µM (inactive); with SNB-19, 48.9 µM (inactive); in the test with SR, 13.5 µM (inactive); with U-251, 13.7 µM (inactive); in the test with UACC-257, 26.3 µM (inactive); in the test with UACC-62, 22.3 µM (inactive).
In the case of `COc1cc2c(cc1OC)C(=O)/C(=C/c1cc(Cl)cc(Cl)c1)C2`, the GI50 in the test on 786-0 was 4.73 µM (inactive); in the test with A549, 12.1 µM (inactive); in the test with HCT-15, 3.03 µM; in the test on HL-60 it was 1.35 µM (inactive); with HOP-62 it was 9.35 µM (inactive); in the test on HT-29 it was 2.59 µM (inactive). Also, the GI50 in the test on IGROV-1 was 2.65 µM (inactive); in the test on MDA-MB-231, 11.3 µM (inactive); in the test with Malme-3M, 8.51 µM (inactive); in the test with OVCAR-3, 3.33 µM (inactive); with OVCAR-4, 17.1 µM (inactive); in the test on OVCAR-5 it was > 34.1 µM (inactive). In addition, the GI50 with SF-295 was 2.49 µM (inactive); in the test with SK-MEL-28, 61.7 µM (inactive); in the test on SN12C, 5.93 µM (inactive); with SNB-19 it was > 26.4 µM (inactive); in the test with U-251 it was 5.32 µM (inactive); with UACC-257, 26 µM (inactive). For the same molecule, the GI50 with UACC-62 is 3.39 µM (inactive).
With `O=C(O)c1ccccn1` [2-PICOLINIC ACID], the GI50 is > 100 µM (inactive) with 786-0; > 100 µM (inactive) in the test on A549; over 100 µM with HCT-15; > 100 µM (inactive) in the test with HOP-62; > 100 µM (inactive) in the test on HT-29; > 100 µM (inactive) in the test on IGROV-1. In addition, the GI50 in the test with MDA-MB-231, with OVCAR-3, with OVCAR-4, in the test with OVCAR-5, in the test with SF-295 and with SK-MEL-28 was > 100 µM (inactive) in each case. The GI50 in the test on SN12C, with SNB-19, with SR, with U-251, with UACC-257 and with UACC-62 was > 100 µM (inactive) in each case.
